According to US20240158446A1, “CYCLIC COMPOUND HAVING SELECTIVE INHIBITORY ACTION ON KRAS OVER HRAS AND NRAS” (CHUGAI SEIYAKU KABUSHIKI KAISHA, priority 2021, published 2024):
Read-outs that look alike come from different tables or passages of the source. Where a SMILES comes first, the peptide text is derived from it. Bridges are numbered along the chain shown (N, C = ends). [ ]: non-standard residue; d: D form. hPhe(3-Cl-4-CF3) = N[C@@H](CCc1ccc(C(F)(F)F)c(Cl)c1)C(=O)O; NPrPhe(4-CF3) = CCCN[C@@H](Cc1ccc(C(F)(F)F)cc1)C(=O)O; NMeGly(cPent) = CN[C@H](C(=O)O)C1CCCC1; Hyp = O=C(O)[C@@H]1C[C@@H](O)CN1; NMeD = CN[C@@H](CC(=O)O)C(=O)O; NMeL = CN[C@@H](CC(C)C)C(=O)O; Ac4c = NC1(C(=O)O)CCC1; Sar = CNCC(=O)O

Legend:
[1] = biological target: GDP-bound HRAS wild-type protein (Homo sapiens, UniProt P01112); test: Binding to HRAS by surface plasmon resonance (SPR), Single Cycle Kinetics; conditions: for HRAS/KRAS (ratio of KD value for HRAS to KD value for KRAS) / HRAS/KRAS (ratio of KD value with respect to HRAS to KD value with respect to KRAS): SPR, GDP-bound HRAS wild-type protein vs GDP-bound KRAS wild-type protein; for HRAS/KRAS (ratio of KD value with respect to GDP-bound HRAS wild-type protein to KD value with respect to KRAS): SPR KD ratio HRAS/KRAS, class symbols
Chain of GDP-bound HRAS wild-type protein (P01112 whole entry): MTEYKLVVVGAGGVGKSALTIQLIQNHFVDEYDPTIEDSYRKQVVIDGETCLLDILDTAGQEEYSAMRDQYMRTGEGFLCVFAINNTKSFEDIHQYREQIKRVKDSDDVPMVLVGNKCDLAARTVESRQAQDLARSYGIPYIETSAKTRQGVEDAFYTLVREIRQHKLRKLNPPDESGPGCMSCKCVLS

[2] = biological target: GDP-bound NRAS wild-type protein (Homo sapiens, UniProt P01111); test: Binding to NRAS by surface plasmon resonance (SPR), Single Cycle Kinetics; conditions: for NRAS/KRAS (ratio of KD value for NRAS to KD value for KRAS) / NRAS/KRAS (ratio of KD value with respect to NRAS to KD value with respect to KRAS): SPR, GDP-bound NRAS wild-type protein vs GDP-bound KRAS wild-type protein; for NRAS/KRAS (ratio of KD value with respect to GDP-bound NRAS wild-type protein to KD value with respect to KRAS): SPR KD ratio NRAS/KRAS, class symbols
Chain of GDP-bound NRAS wild-type protein (P01111 whole entry): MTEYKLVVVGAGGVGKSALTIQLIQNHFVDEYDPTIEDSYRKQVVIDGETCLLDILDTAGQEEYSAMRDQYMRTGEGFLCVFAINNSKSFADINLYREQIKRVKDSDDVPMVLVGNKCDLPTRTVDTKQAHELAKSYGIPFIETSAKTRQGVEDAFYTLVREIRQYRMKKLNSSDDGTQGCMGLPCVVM

[3] = biological target: GDP-bound KRAS wild-type protein (Homo sapiens, UniProt P01116); test: Binding to KRAS by surface plasmon resonance (SPR), Single Cycle Kinetics; conditions: GDP-bound KRAS wild-type protein, read-out: KRAS KD
Chain of GDP-bound KRAS wild-type protein (P01116 whole entry): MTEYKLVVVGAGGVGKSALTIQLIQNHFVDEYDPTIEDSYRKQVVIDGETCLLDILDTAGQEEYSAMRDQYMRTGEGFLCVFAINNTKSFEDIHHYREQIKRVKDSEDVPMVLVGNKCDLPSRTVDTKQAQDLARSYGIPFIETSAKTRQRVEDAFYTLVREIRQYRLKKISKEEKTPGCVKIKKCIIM

[4] = SPR Single Cycle Kinetics, 1:1 binding model

| SMILES | Kd ([3]; SPR, Single Cycle Kinetics) | Kd [3, 4] | HRAS/KRAS (ratio of KD value for HRAS to KD value for KRAS) [1] | NRAS/KRAS (ratio of KD value for NRAS to KD value for KRAS) [2] | other results |
| --- | --- | --- | --- | --- | --- |
| CCCN1C(=O)CN(C)C(=O)CN(C)C(=O)[C@H]([C@@H](C)CC)NC(=O)[C@H](CC(C)C)N(C)C(=O)C[C@@H](C(=O)N(C)C)N(C)C(=O)[C@H](C2CCCC2)N(C)C(=O)C2(CCC2)NC(=O)[C@@H]2C[C@@H](OCC)CN2C(=O)[C@H](CCc2ccc(C(F)(F)F)c(Cl)c2)NC(=O)CN(C)C(=O)[C@@H]1Cc1ccc(C(F)(F)F)cc1 [PP0416] ([NMeL]I[Sar][Sar][NPrPhe(4-CF3)][Sar][hPhe(3-Cl-4-CF3)][Hyp](Et)[Ac4c][NMeGly(cPent)][NMeD]-NMe2; lactam N-11) | – | 0.027 nM | – | – | HRAS/KRAS (ratio of KD value with respect to HRAS to KD value with respect to KRAS) [1]: C (A compound having a KD ratio of 0.1 or more and less than 3 is denoted as C); NRAS/KRAS (ratio of KD value with respect to NRAS to KD value with respect to KRAS) [2]: B (a compound having 3 or more and less than 10 is denoted as B) |
| CCO[C@@H]1C[C@H]2C(=O)NC3(CC(F)(F)C3)C(=O)N(C)[C@@H](C3CCCC3)C(=O)N(C)C(C(C)C)CC(=O)N(C)[C@@H](CC3CC3)C(=O)N[C@@H]([C@@H](C)CC)C(=O)N(C)CC(=O)N(C)[C@H]3C/C=C\CCN(C3=O)[C@@H](Cc3ccc(C(F)(F)F)cc3)C(=O)N(C)CC(=O)N[C@@H](CCc3cc(F)c(C(F)(F)F)c(F)c3)C(=O)N2C1 (stereo partly drawn) [PP1598] | – | – | – | – | HRAS/KRAS (ratio of KD value for HRAS to KD value for KRAS) ([1]; KD ratio class): A (a compound having 10 or more and less than 20 is denoted as A); NRAS/KRAS (ratio of KD value for NRAS to KD value for KRAS) ([2]; KD ratio class): A (a compound having 10 or more and less than 20 is denoted as A); Kd ([3]; SPR, Single Cycle Kinetics, 1:1 binding model): 0.76 nM |
| CCO[C@@H]1C[C@H]2C(=O)NC3(CCC3)C(=O)N(C)[C@@H](C3CCCC3)C(=O)N(C)[C@H](C(=O)N(C)CC)CC(=O)N(C)[C@H]3CCCCCc4ccc(cc4)C[C@@H](C(=O)N(C)CC(=O)N[C@@H](CCc4ccc(C(F)(F)F)c(OC)c4)C(=O)N2C1)N1CC/C=C\C[C@@H](C1=O)N(C)C(=O)CN(C)C(=O)[C@H]([C@@H](C)CC)NC3=O [PP2118] | 0.15 nM | – | B (a compound having 3 or more and less than 10 is denoted as B) | A (a compound having 10 or more and less than 20 is denoted as A) | – |
| CCO[C@@H]1C[C@H]2C(=O)NC3(CCC3)C(=O)N(C)[C@@H](C3CCCC3)C(=O)N(C)[C@H](C(=O)N(C)C)CC(=O)N(C)[C@@H](CC)C(=O)N[C@@H]([C@@H](C)CC)C(=O)N(C)CC(=O)N(C)[C@H]3C/C=C\CCN(C3=O)[C@@H](Cc3ccc(C(F)(F)F)cc3)C(=O)N(C)CC(=O)N[C@@H](CCc3ccc(C(F)(F)F)c(Cl)c3)C(=O)N2C1 [PP0978, (2S,8S,12R,14S,20S,23S,27S,30S,36S,38Z)-8-[2-[3-chloro-4-(trifluoromethyl)phenyl]ethyl]-20-cyclopentyl-12-ethoxy-27-ethyl-N,N,4,19,22,26,32,35-octamethyl-30-[(1S)-1-methylpropyl]-3,6,9,15,18,21,25,28,31,34,42-undecaoxo-2-[[4-(trifluoromethyl)phenyl]methyl]spiro[1,4,7,10,16,19,22,26,29,32,35-undecazatricyclo[34.5.1.0^10,14]dotetracont-38-ene-17,1′-cyclobutane]-23-carboxamide] | 0.088 nM | – | B (a compound having 3 or more and less than 10 is denoted as B) | A (a compound having 10 or more and less than 20 is denoted as A) | – |
| CCC[C@H]1C(=O)N[C@@H]([C@@H](C)CC)C(=O)N(C)CC(=O)N(C)[C@H]2C/C=C\CCN(C2=O)[C@@H](Cc2ccc(C)cc2)C(=O)N(C)CC(=O)N[C@@H](CCc2ccc(C(F)(F)F)c(Cl)c2)C(=O)N2C[C@H](OCC)C[C@H]2C(=O)NC2(CC(C)(C)C2)C(=O)N(C)[C@@H](CC(F)(F)F)C(=O)N(C)[C@H](C(=O)N(C)C)CC(=O)N1C [PP2226] | 0.82 nM | – | A (a compound having 10 or more and less than 20 is denoted as A) | A (a compound having 10 or more and less than 20 is denoted as A) | – |
| CC[C@H](C)[C@@H]1NC(=O)[C@H](C)N(C)C(=O)C[C@@H](C(=O)N(C)C)N(C)C(=O)[C@H](C2CCCC2)N(C)C(=O)C2(CCC2)NC(=O)[C@@H]2CC(F)(F)CN2C(=O)[C@H](CCc2cc(F)c(C(F)(F)F)c(F)c2)NC(=O)CN(C)C(=O)[C@H](Cc2ccc(C(F)(F)F)cc2)N2CCCCC[C@@H](C2=O)N(C)C(=O)CN(C)C1=O [PP0473] | – | 0.56 nM | – | – | HRAS/KRAS (ratio of KD value with respect to HRAS to KD value with respect to KRAS) [1]: C (A compound having a KD ratio of 0.1 or more and less than 3 is denoted as C); NRAS/KRAS (ratio of KD value with respect to NRAS to KD value with respect to KRAS) [2]: C (A compound having a KD ratio of 0.1 or more and less than 3 is denoted as C) |
| CCO[C@@H]1C[C@H]2C(=O)NC3(CCC3)C(=O)N(C)[C@@H](C3CCCC3)C(=O)N(C)[C@H](C(=O)N(C)C)CC(=O)N(C)[C@@H](CC)C(=O)N[C@@H]([C@@H](C)CC)C(=O)N(C)CC(=O)N(C)[C@H]3CCCCN(C3=O)[C@@H](Cc3ccc(C(F)(F)F)cc3)C(=O)N(C)CC(=O)N[C@@H](CCc3cc(Cl)c(C(F)(F)F)c(Cl)c3)C(=O)N2C1 [PP0985] | 0.022 nM | – | C (A compound having a KD ratio of 0.1 or more and less than 3 is denoted as C) | C (A compound having a KD ratio of 0.1 or more and less than 3 is denoted as C) | – |
| CCC(CC)[C@H]1C(=O)N(C)[C@H](C(=O)N(C)C)CC(=O)N(C)[C@H]2CCC/C=C/c3ccc(cc3)C[C@@H](C(=O)N(C)CC(=O)N[C@@H](CCc3cc(F)c(C(F)(F)F)c(F)c3)C(=O)N3CCC[C@H]3C(=O)NC3(CC(C)(C)C3)C(=O)N1C)N1CC/C=C\C[C@@H](C1=O)N(C)C(=O)CN(C)C(=O)[C@H]([C@@H](C)CC)NC2=O [PP2600] | – | 0.17 nM | – | – | HRAS/KRAS (ratio of KD value with respect to GDP-bound HRAS wild-type protein to KD value with respect to KRAS) [1]: A (a compound having 10 or more and less than 20 is denoted as A); NRAS/KRAS (ratio of KD value with respect to GDP-bound NRAS wild-type protein to KD value with respect to KRAS) [2]: A (a compound having 10 or more and less than 20 is denoted as A) |

Continued, in another order:

| Kd ([3]; SPR, Single Cycle Kinetics) | Kd [3, 4] | SMILES | HRAS/KRAS (ratio of KD value for HRAS to KD value for KRAS) [1] | NRAS/KRAS (ratio of KD value for NRAS to KD value for KRAS) [2] | other results |
| --- | --- | --- | --- | --- | --- |
| 0.11 nM | – | C#CC[C@H]1C(=O)N[C@@H]([C@@H](C)CC)C(=O)N(C)CC(=O)N(C)[C@H]2C/C=C\CCN(C2=O)[C@@H](Cc2ccc(C(F)(F)F)cc2)C(=O)N(C)CC(=O)N[C@@H](CCc2cc(F)c(C(F)(F)F)c(F)c2)C(=O)N2C[C@H](OCC)C[C@H]2C(=O)NC2(CC(C)(C)C2)C(=O)N(C)[C@@H](C2CCCC2)C(=O)N(C)[C@H](C(=O)N(C)CCC)CC(=O)N1C [PP2074] | A (a compound having 10 or more and less than 20 is denoted as A) | A (a compound having 10 or more and less than 20 is denoted as A) | – |
| – | 0.051 nM | CCO[C@@H]1C[C@H]2C(=O)NC3(CC(C)(C)C3)C(=O)N(C)[C@@H](C3CCCC3)C(=O)N(C)[C@H](C(=O)N3CCCC3)CC(=O)N(C)[C@H]3CCC/C=C/c4ccc(cc4)C[C@@H](C(=O)N(C)CC(=O)N[C@@H](CCc4cc(F)c(C(F)(F)F)c(F)c4)C(=O)N2C1)N1CC/C=C\C[C@@H](C1=O)N(C)C(=O)CN(C)C(=O)[C@H]([C@@H](C)CC)NC3=O [PP2574, (1S,7S,11R,13S,19S,22S,26S,29S,35S,37Z,47E)-19-cyclopentyl-7-[2-[3,5-difluoro-4-(trifluoromethyl)phenyl]ethyl]-11-ethoxy-3,3′,3′,18,21,25,31,34-octamethyl-29-[(1S)-1-methylpropyl]-22-(pyrrolidine-1-carbonyl)spiro[3,6,9,15,18,21,25,28,31,34,41-undecazapentacyclo[24.15.10.2^43,46.1^35,41.0^9,13]tetrapentaconta-37,43(53),44,46(52),47-pentaene-16,1′-cyclobutane]-2,5,8,14,17,20,24,27,30,33,54-undecone] | – | – | HRAS/KRAS (ratio of KD value with respect to GDP-bound HRAS wild-type protein to KD value with respect to KRAS) [1]: A (a compound having 10 or more and less than 20 is denoted as A); NRAS/KRAS (ratio of KD value with respect to GDP-bound NRAS wild-type protein to KD value with respect to KRAS) [2]: A (a compound having 10 or more and less than 20 is denoted as A) |
| 0.056 nM | – | CCO[C@@H]1C[C@H]2C(=O)NC3(CCC3)C(=O)N(C)[C@@H](C3CCCC3)C(=O)N(C)[C@H](C(=O)N3CCOCC3)CC(=O)N(C)[C@@H](CC(C)C)C(=O)N[C@@H]([C@@H](C)CC)C(=O)N(C)CC(=O)N(C)[C@H]3C[C@@H](C)CCN(C3=O)[C@@H](Cc3ccc(C(F)(F)F)cc3)C(=O)N(C)CC(=O)N[C@@H](CCc3cc(F)c(C(F)(F)F)c(F)c3)C(=O)N2C1 [PP1025] | B (a compound having 3 or more and less than 10 is denoted as B) | C (A compound having a KD ratio of 0.1 or more and less than 3 is denoted as C) | – |
| 3.9 nM | – | CCO[C@@H]1C[C@H]2C(=O)NC3(CCC3)C(=O)N(C)[C@@H](C3CCCC3)C(=O)N(C)[C@H](C(=O)N(C)C)CC(=O)N(C)[C@@H](CC)C(=O)N[C@@H]([C@@H](C)CC)C(=O)N(C)[C@@H](C)C(=O)N(C)[C@H]3C/C=C\CCN(C3=O)[C@@H](Cc3ccc(C(F)(F)F)cc3)C(=O)N(C)CC(=O)N[C@@H](CCc3cc(F)c(C(F)(F)F)c(F)c3)C(=O)N2C1 [PP1054] | B (a compound having 3 or more and less than 10 is denoted as B) | A (a compound having 10 or more and less than 20 is denoted as A) | – |
| 0.23 nM | – | CCO[C@@H]1C[C@H]2C(=O)NC3(CC(C)(C)C3)C(=O)N(C)[C@@H](C(CC)CC)C(=O)N(C)[C@H](C(=O)N(C)C)CC(=O)N(C)[C@@H](COC)C(=O)N[C@@H]([C@@H](C)CC)C(=O)N(C)CC(=O)N(C)[C@H]3C/C=C\CCN(C3=O)[C@@H](Cc3ccc(C(F)(F)F)cc3)C(=O)N(C)CC(=O)N[C@@H](CCc3ccc(C(F)(F)F)c(Cl)c3)C(=O)N2C1 [PP2126] | B (a compound having 3 or more and less than 10 is denoted as B) | A (a compound having 10 or more and less than 20 is denoted as A) | – |
